Experimental data from patent publication US11062797B2, “Method and system for obtaining and using pharmacokinetic data in drug administration” (Continuous Precision Medicine, priority 2014, dated 2021).
“And” between values parts separate entries of the source, which are not always exact repeats. Identical values can stand only once. Like-named read-outs stand apart in the source and are kept apart here.

Assays:
DISE patients = details: cited from earlier work; for average time for the procedures: DeVito et al.
[1] = test system: endoscopic sedation patients; details: anesthetist-administered propofol sedation; cited from earlier work
patients with severe OSA = test system: patients with severe OSA
Description: Ninety-seven (97) patients were enrolled in a prospective study of transoral robotic resection of the tongue base; the examples described below provided a secondary outcome measure of that study. […] The apnea-hypopnea index (AHI) for each patient was recorded from the sleep study. For each patient the saturation nadirs from the sleep study and DISE were paired for statistical analysis. […] The system utilizes the Cortinez pharmacokinetic model (Cortinez et al., Br J Anaesth. 2010; 105:448-56.) and the Johnson pharmacodynamic model (Johnson et al., Anesth Analg. 2008; 106:471-9.) to determine an infusion sequence comprised of a bolus, initial infusion, secondary infusion, and a time for transition from the initial to secondary infusion using the age and weight of the individual patient. This sequence minimizes the difference between the predicted probability of loss of responsiveness and a linear ramp. This is termed probability ramp control (PRC). A brief description of the mathematical approach can be found below. The MATLAB® program (an embodiment of the system) performed the calculations, indicated the time to perform the transition to the second infusion, and logged the time at which obstruction was noted.
All DISE studies were performed in an operating room with standard monitors and resuscitation equipment. A single otorhinolaryngologist performed each nasopharyngoscopy. […] All DISE patients received 2 liters per minute supplemental oxygen via a nasal cannula placed in the mouth. Supplemental oxygen was not used during polysomnography studies (as is typical for this procedure). Pulse oximetry data was recorded for subsequent analysis from a Nellcor pulse oximeter (Covidien, Mansfield, Mass.) at 30-second intervals by the DocuSys anesthesia record keeping system. […] A Baxter AS50 pump (Baxter, Deerfield, Ill.) was programmed with the initial bolus and infusion rates as determined by the control system. […] With the bronchoscope in position to observe the velopharynx, the sedation sequence proceeded until the onset of obstruction was noted. This was identified as the obstruction clinical endpoint. Observation of the pharynx was performed for a sufficient period to obtain images of the anatomic site(s) of obstruction. The infusion was then terminated and the patient allowed to recover. Patient characteristics and derived pharmacokinetic measures were assessed for normal distribution using the Lilliefors test at 5% significance level using the Statistics Toolbox of MATLAB® 8.0 (MathWorks, Natick, Mass.). […] Comparison of saturation nadirs from DISE and polysomnography was performed with both the paired and unpaired Student's t-test. […] No power analysis was performed for this study, as it was a secondary outcome measure for the larger study of transoral robotic surgery.

[2] = test system: patients scheduled for elective esophagogastroduodenoscopy (EGD); details: for Maximum Effect Site: Cortinez model estimate; for Maximum Effect Site / Target Effect Site / Time to target: median (IQR); for Target Effect Site: at loss of responsiveness to nasopharyngeal airway placement; for patients with oxygen saturation values below 90%: 100% oxygen via Robertazzi airway
Description: In addition to ASA standard monitors, respiratory inductance plethysmography (RIP) (Ambulatory Monitoring Inc, Armonk, N.Y.), SEDLine® patient state index (PSI) (Masimo Corp, Irvine, Calif.) and RAD87 pulse oximeter (Masimo Corp, Irvine, Calif.) were applied. All patients received 50 μg of fentanyl immediately prior to initiation of sedation. […] In the experimental arm, patient age and weight were used by the PRC algorithm to calculate bolus, infusion1, infusion2, and time for transition from infusion1 to infusion2. These numbers were reviewed by an investigator prior to initiation of sedation, and when the patient could tolerate airway placement, the software determined the maintenance infusion to maintain the effect-site concentration at the value existing at that time. Custom software written in Labview 2012 (National Instruments, Austin, Tex.) performed these calculations, transmitted the infusion rates to a Graseby 3400 pump (Marcal Medical, Millersville, Md.), and acquired data from the monitors.
All patients were preoxygenated using a Mapleson circuit at oxygen flows greater than 10 liters per minute. Following placement of the Robertazzi airway, the Mapleson circuit was connected to the airway via the connector from an endotracheal tube and the adjustable pressure limit valve closed, assuring continuous flow of 100% oxygen into the hypopharynx.
In experimental patients, the CRNA could request additional boluses or changes in infusion rates as they saw fit. […] This measure is reported in two ways. The first is termed “adjustment dose”, which is the cumulative absolute value of the difference between the intended trajectory and the actual administration. The second is the “intended ratio”, which is the ratio of the dose delivered on the intended trajectory and the actual administration. These measures are depicted in FIG. 7. In FIG. 7, the dotted line indicates the actual infusion rates, while the solid line indicates the intended trajectory (fixing the infusion rate at 300 μg/kg/min).
Ventilatory depression was assessed from respiratory inductance plethysmography signals. The signals were filtered by ensemble empirical mode decomposition employing 450 realizations and noise scaled to 40% of signal power. The dominant mode was used for the Huang-Hilbert Transform (HHT). Minute ventilation was computed as the product of the respiratory rate times the magnitude of volume change at one second intervals. Baseline ventilation was determined from several breaths prior to initiation of sedation; subsequent measurements were normalized by this baseline value. These values were grouped into one minute epochs and the median of values less than 100% obtained. Values above 100% were excluded for two reasons.
Oxygen saturation was acquired from the RAD87 at one second intervals, as was the patient state index. Obvious artifacts such as sensor dislodgement were excluded from analysis. Desaturation is reported as cumulative time below specified saturation in the range from 54% to 90%.
Effect site estimates were calculated using the Cortinez model employing the nominal values, with an adjoined effect compartment. The ke0 was chosen to yield a time to peak effect of 1.6 minutes. MATLAB® code for the state-space implementation of this model with observation of the effect site is available on the OpenTCI website.

[3] = Nominal Cortinez model; cited from earlier work

CC(C)c1cccc(C(C)C)c1O [propofol]
average time for the procedures (DISE patients; TCI group): 15.2 min | patients demonstrating sedation instability (DISE patients; TCI group): 5% | average time for the procedures (DISE patients; manual control group): 6.2 min | patients demonstrating sedation instability (DISE patients; manual propofol bolus group): 65% | BIS values, mean and standard deviation [1]: 72.1±15.1 | median saturation nadir during DISE (patients with severe OSA; 2 liters per minute supplemental oxygen, median ± IQR, polysomnography 81.0±11.25%): 91.4±5.1% | predicted effect-site concentration for obstruction (patients with severe OSA; Cortinez model, ke0 for time to peak effect of 1.6 minutes): 4.2 ± 1.3 µg/mL | median time to obstruction (patients with severe OSA; DISE, PRC infusion, n=97, median (IQR)): 3.8 (IQR 1.2) minutes | mean predicted effect-site concentration of propofol at obstruction (patients with severe OSA; DISE, PRC infusion, Cortinez model with adjoined effect compartment): 4.2 ± 1.3 µg/mL | adverse events (patients with severe OSA; DISE, all patients): no adverse events | mean time to obstruction (patients with severe OSA; control system according to Example 1): 3.9 min | lowest saturation measured (patients with severe OSA; oxygen at 2 liters per minute via oral cannula): 74% | median saturation nadir during DISE (patients with severe OSA; sub-cohort of 7 patients whose nadir was not lower during polysomnography): 85% | Maximum Effect Site ([2]; Control (CRNA dosing)): 6.1 (3.5) μg/ml | Target Effect Site ([2]; Control (CRNA dosing)): 4.8 (1.6) μg/ml | Time to target ([2]; Control (CRNA dosing)): 2 (2.2) min | Maximum Effect Site ([2]; Experimental (PRC)): 5.3 (4.6) NS μg/ml | Target Effect Site ([2]; Experimental (PRC)): 4.9 (2.9) NS μg/ml | Time to target ([2]; Experimental (PRC)): 3.9 (1.6) min and 3.9 (1.6) * min | additional time to achieve endoscope placement ([2]; PRC system versus control): 111 s | patients identified at targets below 3.9 μg/ml ([2]; control group (CRNA dosing)): No control patients | patients with oxygen saturation values below 90% ([2]; control patients): 3 | patients identified at targets below 3.9 μg/ml ([2]; experimental group (PRC)): 5/20 | patients with targets below effect-site concentrations of 3.9 μg/ml ([2]; experimental group (PRC)): 20% | patients with oxygen saturation values below 90% ([2]; experimental patients): 2 | Q2 [3]: 3.2 L/min | V3 [3]: 53.8 L
